Assay results from patent US20200171159A1, “SELECTIVE DESTRUCTION OF CELLS” (priority 2017, published 2020).
Entries after “also recorded” stand apart in the source; their conditions may differ.

Experiments:
1975 lung cancer cells = assay: Cell survival, enzymatic MTT assay, Example 5; format: cell-based, human; details: 1975 cells
[1] = tested on: BT549 breast cancer cells; assay: Cell survival, enzymatic MTT assay, Example 5; format: cell-based, human
H1975 cells [2] = assay: Cell survival, enzymatic MTT assay, Example 2; details: with INS peptide and LV-scFvCD24 particles
Protocol: Cell line “H1975” cells were seeded in 96-well plates (2000 cells/well). […] Particles were added on day 2.

H1975 cells [3] = assay: Cell survival with LV-scFvCD24 and INr2 peptide, Example 3; format: cell-based, human; details: with peptide and LV-scFvCD24 particles
Protocol: The expression of CD24 in H1975 cells was evaluated by Flow cytometry. Briefly, approximately 1×10^6 cells were used in each experiment. Fluorescein isothiocyanate (FITC)—labeled humanized anti-human CD24 antibodies were used. Detection of bound antibodies was performed on a Cube6 and results were analyzed with the FCS express program. The lentivirus used was anti-CD24 scFv in an MOI of 30. The LentiBoost™ concentration used was 1:100 buffer A+1:100 buffer B (+spinoculation). The INr2 peptide was used in a concentration of 30 μM. FIG. 3A depicts the fluorescence (count) of the tested cells (Left—negative control, only secondary antibody; Right—duplicates of cells expressing CD24 after first and second-FITC antibodies). […] FIG. 3C is a schematic illustration of the of the experiment timeline. […] Particles were added on days 1, 4 and 7 as well.

HIV-1 = details: cited from earlier work
[4] = cited from earlier work
IN-Rev interaction = IN-Rev interaction (Human immunodeficiency virus type 1 group M subtype B, UniProt P04618); details: cited from earlier work
IN-Rev interaction, sequence (P04618 whole entry, looked up): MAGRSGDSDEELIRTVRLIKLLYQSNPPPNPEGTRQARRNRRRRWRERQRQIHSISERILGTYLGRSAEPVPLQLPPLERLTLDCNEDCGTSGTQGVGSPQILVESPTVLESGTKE

[5] = tested on: MCF7, Human breast adenocarcinoma; assay: Cell death of lentivirus-infected cells, fluorescent microscopy and MTT assay, Example 4; format: cell-based; details: MCF7 infected with CD24-targeted lentivirus; compared to the control peptide
Protocol: (§1) Integrase derived peptides (designated as INS) were synthesized as well as control peptide. Humanized Anti-CD24 antibody fragment (scFv) was engineered and fused to the lentivirus envelope. Cell death was measured qualitatively by using fluorescent microscopy and was quantified by the enzymatic MTT assay. Human colorectal cells (DLD1, colorectal adenocarcinoma, FIG. 4A) and breast cancer cells (MCF7, Human breast adenocarcinoma, FIG. 4B) were used for testing the potency of the lentiviral-based system.

[6] = tested on: DLD1, colorectal adenocarcinoma; assay: as above; format: cell-based, human; details: DLD1 infected with CD24-targeted lentivirus; compared to the control peptide
Protocol: as §1

IN = molecular target: T1, IN (Human immunodeficiency virus type 1 group M subtype B, UniProt P12497); details: listed as INS; cited from earlier work
T1 construct: Stimulation of the HIV-1 Integrase Enzymatic Activity and cDNA Integration by a Peptide Derived from the Integrase Protein

HIV-1 integrase = molecular target: T2, HIV-1 integrase (Human immunodeficiency virus type 1 group M subtype B, UniProt P12497); assay: Integrase activity in test tubes (HIV-1 integrase assay kit); format: biochemical
T2 construct: purchased
Protocol: The ability of INS to increase the activity of HIV-1 integrase was tested using the HIV-1 integrase assay kit.

viral Integrase enzyme = viral Integrase enzyme (Human immunodeficiency virus type 1 group M subtype B, UniProt P12497); assay: Integrase stimulation in viral infected cells, Example 4; format: cell-based
Protocol: as §1

Compound | effect of Raltegravir on the decrease in survival (1975 lung cancer cells) | effect of Raltegravir on the decrease in survival [1] | effect of Raltegravir on the decrease in survival (H1975 cells [2]) | effect of Raltegravir on the decrease in survival (H1975 cells [3]) | virus infectivity (HIV-1) | cell permeability [4] | IN-Rev interaction (IN-Rev interaction) | cell death [5] | cell death [6] | direct effect on IN activity (IN) | stimulation of the viral Integrase enzyme (HIV-1 integrase) | stimulation of the viral Integrase enzyme (viral Integrase enzyme)
Cc1nnc(C(=O)NC(C)(C)c2nc(C(=O)NCc3ccc(F)cc3)c(O)c(=O)n2C)o1 [Raltegravir] | ameliorated | ameliorated | ameliorated | ameliorated | – | – | – | – | – | – | – | –
WTHLEGKIILVAVHVA [INr1] | – | – | – | – | stimulated virus infectivity | cell-permeable | abrogated | – | – | – | – | –
WGSNFTSTTVKA [INr2] | – | – | – | – | stimulated virus infectivity | cell-permeable | abrogated | – | – | – | – | –
WTAVQMAVFIHNFKRK [INS peptide] | – | – | – | – | stimulated virus infectivity | cell-permeable | abrogated | Massive cell death | Massive cell death | directly activates the free IN; also recorded: direct stimulatory effect | able to stimulate | able to stimulate
